Test results taken from ChEMBL document CHEMBL1150213, “Protein-tyrosine kinase inhibition: mechanism-based discovery of antitumor agents” (J Nat Prod, 1992).
pIC50: −log10 of the molar value. Each block holds one molecule with its values, some of them ahead of it.

Assays:
[1] = molecular target: T1, Tyrosine-protein kinase transforming protein Abl (Abelson murine leukemia virus, UniProt P00521)
T1 sequence (P00521 whole entry): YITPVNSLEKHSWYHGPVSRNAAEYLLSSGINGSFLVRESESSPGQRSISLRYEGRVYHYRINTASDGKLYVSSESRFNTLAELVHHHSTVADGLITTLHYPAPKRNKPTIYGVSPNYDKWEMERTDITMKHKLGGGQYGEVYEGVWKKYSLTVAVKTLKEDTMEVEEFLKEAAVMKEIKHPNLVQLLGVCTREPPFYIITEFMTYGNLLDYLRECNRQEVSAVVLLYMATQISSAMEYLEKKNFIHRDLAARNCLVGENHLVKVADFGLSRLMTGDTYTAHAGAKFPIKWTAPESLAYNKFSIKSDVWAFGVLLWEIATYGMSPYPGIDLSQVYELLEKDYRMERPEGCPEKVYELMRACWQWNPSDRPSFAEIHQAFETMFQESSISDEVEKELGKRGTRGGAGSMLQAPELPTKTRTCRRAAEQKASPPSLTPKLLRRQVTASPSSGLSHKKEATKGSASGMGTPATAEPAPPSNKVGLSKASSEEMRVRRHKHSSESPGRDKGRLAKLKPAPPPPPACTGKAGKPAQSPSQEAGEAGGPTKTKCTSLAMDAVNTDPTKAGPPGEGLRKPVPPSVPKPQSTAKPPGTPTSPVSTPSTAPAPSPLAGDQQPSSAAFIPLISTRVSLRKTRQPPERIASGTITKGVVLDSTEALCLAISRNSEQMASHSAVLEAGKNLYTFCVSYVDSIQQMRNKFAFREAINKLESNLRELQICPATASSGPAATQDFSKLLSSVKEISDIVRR
Description: Inhibition of Abelson murine leukemia virus p60 v-abl

[2] = Inhibition of p40 tyrosine kinase
[3] = molecular target: T2, Epidermal growth factor receptor (Homo sapiens, UniProt P00533)
[4] = molecular target: T2, Epidermal growth factor receptor; remark: listed apart in the source
[5] = molecular target: T2, Epidermal growth factor receptor; test: Inhibition of EGFR in human A431 cells at 400 nmol/mg protein in absence of EGF; format: cell-based; settings: A-431
[6] = molecular target: T2, Epidermal growth factor receptor; test: Inhibition of EGFR in human A431 cells at 400 nmol/mg protein in presence of EGF; format: cell-based; settings: A-431

T2 sequence (P00533 whole entry): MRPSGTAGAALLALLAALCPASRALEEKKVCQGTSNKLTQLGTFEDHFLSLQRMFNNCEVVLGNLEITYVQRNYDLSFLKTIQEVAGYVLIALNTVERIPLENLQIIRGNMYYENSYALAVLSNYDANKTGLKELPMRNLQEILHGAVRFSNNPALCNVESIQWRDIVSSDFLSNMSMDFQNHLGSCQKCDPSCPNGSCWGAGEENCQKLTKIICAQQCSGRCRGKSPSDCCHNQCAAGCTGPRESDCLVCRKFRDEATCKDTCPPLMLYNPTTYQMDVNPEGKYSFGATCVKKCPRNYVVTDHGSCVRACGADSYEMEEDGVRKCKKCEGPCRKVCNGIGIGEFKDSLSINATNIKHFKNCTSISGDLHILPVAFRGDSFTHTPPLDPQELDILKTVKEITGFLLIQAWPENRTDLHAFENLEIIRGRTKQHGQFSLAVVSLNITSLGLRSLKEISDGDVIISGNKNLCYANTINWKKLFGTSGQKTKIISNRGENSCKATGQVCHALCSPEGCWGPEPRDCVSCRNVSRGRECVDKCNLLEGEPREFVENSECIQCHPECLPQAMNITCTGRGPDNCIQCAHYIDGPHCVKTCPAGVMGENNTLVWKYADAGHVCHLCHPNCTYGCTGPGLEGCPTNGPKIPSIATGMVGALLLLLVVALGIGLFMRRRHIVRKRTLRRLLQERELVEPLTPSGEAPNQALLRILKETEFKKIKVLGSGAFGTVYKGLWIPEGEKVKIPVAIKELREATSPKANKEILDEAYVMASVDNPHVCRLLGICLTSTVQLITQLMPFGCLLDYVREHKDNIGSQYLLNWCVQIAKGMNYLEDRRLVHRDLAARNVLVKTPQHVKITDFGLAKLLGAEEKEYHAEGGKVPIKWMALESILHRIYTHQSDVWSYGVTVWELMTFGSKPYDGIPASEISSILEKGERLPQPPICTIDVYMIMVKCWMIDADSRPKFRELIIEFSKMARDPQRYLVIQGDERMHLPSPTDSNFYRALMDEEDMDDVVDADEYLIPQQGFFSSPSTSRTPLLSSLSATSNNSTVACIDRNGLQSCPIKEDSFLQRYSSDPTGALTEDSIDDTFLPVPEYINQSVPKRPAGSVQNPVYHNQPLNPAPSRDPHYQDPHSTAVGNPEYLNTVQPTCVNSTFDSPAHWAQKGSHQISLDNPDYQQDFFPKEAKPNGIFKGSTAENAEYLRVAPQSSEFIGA

SMILES: COc1cc(/C=C/C(=O)O)ccc1O [FERULATE]
- IC50 [2]: > 300 µg/mL

SMILES: O=CN/C=C/c1cccc(O)c1O
- pIC50 [3]: 5.78

SMILES: C[C@H](NC(=O)c1ccc(S(=O)(=O)Oc2ccc(/C=C/[N+](=O)[O-])cc2)cc1)C(=O)N[C@@H](C)C(=O)NCCN
- pIC50 [1]: 4.70
- pIC50 [4]: 4.70

SMILES: Nc1ncnc2c1ncn2[C@@H]1O[C@H](COC(=O)c2ccc(S(=O)(=O)F)cc2)[C@@H](O)[C@H]1O
- pIC50 [1]: 3.70

SMILES: CC(C)(C)OC(=O)NCCNC(=O)c1ccc(S(=O)(=O)Oc2ccc(/C=C/[N+](=O)[O-])cc2)cc1
- pIC50 [1]: 4.00
- pIC50 [4]: 6.00

SMILES: O=C(O)/C=C/c1cc(O)ccc1O
- pIC50 [3]: 4.35

SMILES: O=c1c(-c2ccc(O)cc2)c(CN2CCCCC2)oc2cc(O)cc(O)c12
- pIC50 [3]: 4.57

SMILES: CCOC(=O)CSCc1oc2cc(O)cc(O)c2c(=O)c1-c1ccc(O)cc1
- pIC50 [3]: 5.00

SMILES: CC(C)OC(=O)c1oc2cc(O)cc(O)c2c(=O)c1-c1ccc(O)cc1
- pIC50 [3]: 4.55

SMILES: CNC(=O)c1ccc(S(=O)(=O)Oc2ccc(/C=C/[N+](=O)[O-])cc2)cc1
- pIC50 [1]: < 4.40

SMILES: CCOc1cc(/C=C(\C#N)C(N)=O)cc(CSc2ccc(C)cc2)c1O
- pIC50 [3]: 4.70

SMILES: Cc1ccc([C@@H]2CC(=O)c3c(O)cc(O)cc3O2)cc1
- IC50 [2]: 3 ×10¹ ug/ml

SMILES: CC(C)C[C@H](N)C(=O)CCl
- inhibition [5]: 16%
- inhibition [6]: 0%

SMILES: O=CN/C=C/c1ccccc1O
- pIC50 [3]: < 3.21

SMILES: COC(=O)/C=C/c1cc(O)ccc1O
- pIC50 [3]: 3.99

SMILES: CC(C)C[C@H](NC(=O)OC(C)(C)C)C(=O)CBr
- inhibition [5]: 65%
- inhibition [6]: 69%

SMILES: O=CN/C=C/c1ccc(O)cc1O
- pIC50 [3]: < 3.78

SMILES: CC(C)c1cc(/C=C(\C#N)C(N)=O)cc(C(C)C)c1O
- pIC50 [3]: 6.00

SMILES: N#CC(C#N)=C1C(=O)Nc2cc(O)c(O)cc21
- pIC50 [3]: 5.52

Further lines, results first:

- pIC50 [1]: 4.00
SMILES: Nc1ncnc2c1ncn2[C@@H]1O[C@H](COC(=O)c2ccc(S(N)(=O)=O)cc2)[C@@H](O)[C@H]1O

- pIC50 [3]: 6.40
SMILES: N#C/C(=C\c1cc(-c2ccccc2)c(O)c(-c2ccccc2)c1)C(N)=O

- pIC50 [1]: < 4.00
SMILES: Nc1ncnc2c1ncn2[C@@H]1O[C@H](COC(=O)c2ccc(S(=O)(=O)Oc3ccc(/C=C/[N+](=O)[O-])cc3)cc2)[C@@H](O)[C@H]1O

- pIC50 [1]: 4.00
SMILES: O=C(O)c1ccc(S(=O)(=O)Oc2ccc(/C=C/[N+](=O)[O-])cc2)cc1

- IC50 [2]: > 5 ×10² ug/ml
SMILES: O=C1c2ccc(O)cc2O[C@H](c2ccc(O)c(O)c2)[C@H]1O [FUSTIN]

- pIC50 [1]: 3.40
SMILES: Nc1ncnc2c1ncn2[C@@H]1O[C@H](COP(=O)(O)OP(=O)(O)OP(=O)(O)OP(=O)(O)Oc2ccccc2)[C@@H](O)[C@H]1O

- pIC50 [1]: 4.00
SMILES: CC(=O)NC(Cc1ccc(NP(=O)(O)OP(=O)(O)OP(=O)(O)OP(=O)(O)OC[C@H]2O[C@@H](n3cnc4c(N)ncnc43)[C@H](O)[C@@H]2O)cc1)C(N)=O (some centres undefined)

- pIC50 [1]: 4.00
SMILES: COc1cc(/C=C/[N+](=O)[O-])ccc1OS(=O)(=O)c1ccc(C(=O)OC[C@H]2O[C@@H](n3cnc4c(N)ncnc43)[C@H](O)[C@@H]2O)cc1

- inhibition [5]: 6%
- inhibition [6]: 10%
SMILES: O=C(CCl)[C@H](Cc1c[nH]c2ccccc12)NOCc1ccccc1

- pIC50 [3]: 6.40
SMILES: CCOc1cc(/C=C(\C#N)C(N)=O)cc(CSc2ccccc2)c1O

- pIC50 [1]: 4.40
- pIC50 [4]: 5.52
SMILES: COc1cc(/C=C/[N+](=O)[O-])ccc1OS(=O)(=O)c1ccc(C(=O)O)cc1

- IC50 [2]: 3 ×10² ug/ml
SMILES: O=C1c2c(O)cc(O)cc2O[C@H](c2ccc(O)c(O)c2)[C@H]1O [(+)-TAXIFOLIN]

- pIC50 [3]: 6.22
SMILES: N#C/C(=C/c1cc(Cc2ccccc2)c(O)c(Cc2ccccc2)c1)C(N)=O

- pIC50 [1]: 4.00
- pIC50 [4]: 6.52
SMILES: O=C(O)c1ccc(S(=O)(=O)Oc2ccc(/C=C/[N+](=O)[O-])cc2)c(O)c1

- inhibition [5]: 71%
- inhibition [6]: 44%
SMILES: C[C@H](NC(=O)OCc1ccccc1)C(=O)CCl

- pIC50 [1]: 4.40
SMILES: CC(=O)NC(Cc1ccc(NP(=O)(O)OP(=O)(O)OP(=O)(O)OC[C@H]2O[C@@H](n3cnc4c(N)ncnc43)[C@H](O)[C@@H]2O)cc1)C(N)=O (some centres undefined)

- pIC50 [1]: 4.70
SMILES: Nc1ncnc2c1ncn2[C@@H]1O[C@H](COC(=O)c2ccc(S(=O)(=O)Nc3ccccc3)cc2)[C@@H](O)[C@H]1O
